From US20050048105A1, “Protease inhibitor compositions for prevention and treatment of skin conditions” (priority 2003, published 2005)
Read-outs that look alike come from different tables or passages of the source.

How the values were obtained:
protease = experiment: Protease inhibition activity of inhibitor solutions and lotions, fresh and after storage; type: biochemical; settings: for initial protease inhibition activity: freshly prepared preparation; for decrease of inhibitory activity after storage of solution: one month at room temperature, vs fresh solution
Procedure: (§1) The inventor selected glycine soja and DPHP by testing numerous potential inhibitors in vitro to assess their activity against protease enzymes. A protease enzyme present in feces or urine, such as trypsin, chymotrypsin, or elastase, was placed in contact with a substrate (crosslinked albumin, sulfaniloazo-albumin and gelatin). Separately, the protease (trypsin, chymotrypsin or elastase) was incubated with a protease inhibitor and then this combination was placed in contact with the substrate. The substrate-protease or substrate-protease-protease inhibitor combination was then left to incubate.
(§2) At a defined time, the incubation was stopped by the addition of NaOH. Color was developed and read at OD 450. The intensity of the color developed was directly proportional to the amount of substrate digested by the protease.
Using the above methods, two protease inhibitors mentioned by the prior art were tested. […] However, they were left for one month and then tested for activity. After one month at room temperature, the activity of the stabilized AEBSF solution was decreased by 42%.

chymotrypsin = chymotrypsin (Bos taurus, UniProt P00766); experiment: In vitro protease substrate digest with chymotrypsin; type: biochemical
Procedure: as §1, §2

elastase [1] = settings: studies by the manufacturer (Seppic); cited from earlier work
trypsin = target: T1, trypsin (Bos taurus, UniProt P00760); experiment: Back digest of albumin/gelatin dye substrate by trypsin (FIGS. 2 and 4); type: biochemical
T1 construct: gene PRSS1
T1 sequence (P00760 24-246): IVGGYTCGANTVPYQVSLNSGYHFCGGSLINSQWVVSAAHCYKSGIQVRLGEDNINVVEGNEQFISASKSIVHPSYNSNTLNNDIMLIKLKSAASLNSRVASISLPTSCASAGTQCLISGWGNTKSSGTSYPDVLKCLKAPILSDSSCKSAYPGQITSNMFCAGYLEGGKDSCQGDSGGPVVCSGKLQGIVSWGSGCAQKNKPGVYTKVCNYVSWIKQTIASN
Procedure: as §1, §2
A back digest was performed with a spectrally active protease substrate, trypsin, and either DPHP or glycine soja. Trypsin was incubated with either DPHP or glycine soja, and for the control, neither DPHP nor glycine soja was used. The trypsin or trypsin+either DPHP or glycine soja was then placed in contact with a substrate, the results of which are shown in FIGS. 3 and 4.
(§3) The substrate used was a crosslinked albumin, sulfaniloazo-albumin and gelatin at a slightly acidic pH. […] This color development can be measured spectrophotometrically at OD 450 and the OD value is proportional to enzymatic activity. […] The OD 450 reading is directly proportional to the enzyme activity (i.e. the higher the value, the higher the enzyme activity).
(§4) A back digest was conducted when particulate suspensions were used as either enzyme or enzyme inhibitor or when lotions were being tested, because the particulate interferes with the OD readings. […] Color development was read at OD 450. […]
After an initial digest, the supernatant was decanted, and an excess of trypsin was added for further digestion of the substrate. After this final digest, supernatant optical density (OD) was read at 450 nm. […]

elastase [2] = experiment: Back digest of albumin/gelatin dye substrate by elastase (FIG. 4); type: biochemical
Procedure: as §1
At a defined time, the incubation was stopped by the addition of NaOH. Color was developed and read at OD 450. […]
as §3, §4

[3] = shown by the manufacturer; cited from earlier work
[4] = listed as dipalmitoyl hydroxyproline
[5] = DPHP material itself, back digest, FIG. 4

## Cl.NCCc1ccc(S(=O)(=O)F)cc1 [AEBSF, 4-(2-aminoethyl)-benzenesulfonylfluoride hydrochloride]
protease
  initial protease inhibition activity: very high protease inhibition activity
  decrease of inhibitory activity after storage of solution: 42%

## CCCCCCCCCCCCCCCC(=O)O[C@@H]1C[C@@H](C(=O)O)N(C(=O)CCCCCCCCCCCCCCC)C1 [DPHP, dipalmitoyl hydroxyproline]
chymotrypsin
  inhibition of chymotrypsin (in words): does inhibit
chymotrypsin; [4]
  inhibition of chymotrypsin (in words): potent inhibitors
Elastase [1]
  inhibition of elastase (manufacturer): potent inhibitor of elastase
trypsin
  inhibition of trypsin (in words): does inhibit
trypsin; [5]
  change in trypsin activity: −33%
trypsin; [4]
  inhibition of trypsin (in words): potent inhibitors
Elastase [2]
  inhibition of elastase (in words): does inhibit
Elastase [2]; [5]
  change in elastase activity: −22%
[3]
  inhibition of free radicals (manufacturer): potent inhibitor of free radicals

## N=C(N)c1ccc(OCCCCCCOc2ccc(C(=N)N)cc2)cc1.O=S(=O)(O)CCO.O=S(=O)(O)CCO [Elestab, hexamidine diisethionate]
protease
  initial protease inhibition activity: very high protease inhibition activity
  decrease of inhibitory activity after storage of solution: about 37%
